Measurements reported in patent US11766411B2, “Use of cannabinoids in the treatment of epilepsy” (GW Research Limited, priority 2014, dated 2023).

Tests used:
patients with FIRES = experiment: Expanded access program, febrile infection related epilepsy syndrome (FIRES) patients; assay type: in vivo, human; parameters: Change from Baseline: unit not given here; settings: total seizures
Description: Three patients with FIRES, with an age range of from 4 to 15 years, were treated with CBD under an expanded access program as described previously in Example 1.
Safety laboratory studies, physical/neurological exams, 24 hour video/EEG and seizure types and frequencies were assessed at baseline and one month after starting CBD.
A highly purified extract of CBD as an oral solution in sesame oil was used at a concentration of 25 mg/mL.
Treatment was initiated at a dose of 10 mg/kg/day given in two divided doses, increasing by 5 mg/kg/day every 3 days.
Following seizure improvement an average of 2 AEDs were weaned.

[1] = test system: adult patients with generalized epilepsy; settings: eight adult patients with generalized epilepsy; cited from earlier work
adult patients = settings: 200 mg/day of pure CBD, four adult patients; cited from earlier work
[2] = test system: institutionalized adult patients; settings: 200 mg/day of pure CBD, twelve institutionalized adult patients, open label; cited from earlier work
mice = settings: after administration of pro-convulsant drugs or an electric current; cited from earlier work

For `C=C(C)[C@@H]1CCC(C)=C[C@H]1c1c(O)cc(CCCCC)cc1O` [CBD, Cannabidiol], the “Frequency (per month)” value (patients with FIRES; Patient 1, Wk 12) was 0.0 per month, the “Responder (>=50% Reduction)” value (patients with FIRES; Patient 1, Wk 12) was “Yes” and the “Responder (>=70% Reduction)” value (patients with FIRES; Patient 1, Wk 12) was “Yes”. The “Responder (>=90% Reduction)” value (patients with FIRES; Patient 1, Wk 12) was “Yes”, the “Seizure Free” value (patients with FIRES; Patient 1, Wk 12) was “Yes” and the “% Change from Baseline” value (patients with FIRES; Patient 1, Wk 16) was −100.0%. For the same molecule, the “Change from Baseline” value (patients with FIRES; Patient 1, Wk 16) was −4.0, the “Frequency (per month)” value (patients with FIRES; Patient 1, Wk 16) was 0.0 per month and the “Responder (>=50% Reduction)” value (patients with FIRES; Patient 1, Wk 16) was “Yes”. For the same molecule, the “Responder (>=70% Reduction)” value (patients with FIRES; Patient 1, Wk 16) was “Yes”, the “Responder (>=90% Reduction)” value (patients with FIRES; Patient 1, Wk 16) was “Yes” and the “Seizure Free” value (patients with FIRES; Patient 1, Wk 16) was “Yes”. The “% Change from Baseline” value (patients with FIRES; Patient 1, Wk 24) was −92.0%, the “Change from Baseline” value (patients with FIRES; Patient 1, Wk 24) was −3.7 and the “Frequency (per month)” value (patients with FIRES; Patient 1, Wk 24) was 0.3 per month. The “Responder (>=50% Reduction)” value (patients with FIRES; Patient 1, Wk 24) was “Yes”, the “Responder (>=70% Reduction)” value (patients with FIRES; Patient 1, Wk 24) was “Yes” and the “Responder (>=90% Reduction)” value (patients with FIRES; Patient 1, Wk 24) was “Yes”. The “Seizure Free” value (patients with FIRES; Patient 1, Wk 24) was “No”, the “% Change from Baseline” value (patients with FIRES; Patient 2, Wk 2) was −88.6% and the “Change from Baseline” value (patients with FIRES; Patient 2, Wk 2) was −6.2. For the same molecule, the “Frequency (per month)” value (patients with FIRES; Patient 2, Wk 2) was 0.8 per month, the “Responder (>=50% Reduction)” value (patients with FIRES; Patient 2, Wk 2) was “Yes” and the “Responder (>=70% Reduction)” value (patients with FIRES; Patient 2, Wk 2) was “Yes”. The “Responder (>=90% Reduction)” value (patients with FIRES; Patient 2, Wk 2) was “No”, the “Seizure Free” value (patients with FIRES; Patient 2, Wk 2) was “No” and the “% Change from Baseline” value (patients with FIRES; Patient 2, Wk 4) was −57.1%. For the same molecule, the “Change from Baseline” value (patients with FIRES; Patient 2, Wk 4) was −4.0, the “Frequency (per month)” value (patients with FIRES; Patient 2, Wk 4) was 3.0 per month and the “Responder (>=50% Reduction)” value (patients with FIRES; Patient 2, Wk 4) was “Yes”. The “Responder (>=70% Reduction)” value (patients with FIRES; Patient 2, Wk 4) was “No”, the “Responder (>=90% Reduction)” value (patients with FIRES; Patient 2, Wk 4) was “No” and the “Seizure Free” value (patients with FIRES; Patient 2, Wk 4) was “No”. For the same molecule, the “% Change from Baseline” value (patients with FIRES; Patient 2, Wk 8) was 42.9%, the “Change from Baseline” value (patients with FIRES; Patient 2, Wk 8) was 3.0 and the “Frequency (per month)” value (patients with FIRES; Patient 2, Wk 8) was 10.0 per month. For the same molecule, the “Responder (>=50% Reduction)” value (patients with FIRES; Patient 2, Wk 8) was “No”, the “Responder (>=70% Reduction)” value (patients with FIRES; Patient 2, Wk 8) was “No” and the “Responder (>=90% Reduction)” value (patients with FIRES; Patient 2, Wk 8) was “No”. The “Seizure Free” value (patients with FIRES; Patient 2, Wk 8) was “No”, the “% Change from Baseline” value (patients with FIRES; Patient 2, Wk 12) was 14.3% and the “Change from Baseline” value (patients with FIRES; Patient 2, Wk 12) was 1.0. For the same molecule, the “Frequency (per month)” value (patients with FIRES; Patient 2, Wk 12) was 8.0 per month, the “Responder (>=50% Reduction)” value (patients with FIRES; Patient 2, Wk 12) was “No” and the “Responder (>=70% Reduction)” value (patients with FIRES; Patient 2, Wk 12) was “No”. For the same molecule, the “Responder (>=90% Reduction)” value (patients with FIRES; Patient 2, Wk 12) was “No”, the “Seizure Free” value (patients with FIRES; Patient 2, Wk 12) was “No” and the “% Change from Baseline” value (patients with FIRES; Patient 2, Wk 16) was −42.9%. For the same molecule, the “Change from Baseline” value (patients with FIRES; Patient 2, Wk 16) was −3.0, the “Frequency (per month)” value (patients with FIRES; Patient 2, Wk 16) was 4.0 per month and the “Responder (>=50% Reduction)” value (patients with FIRES; Patient 2, Wk 16) was “No”. The “Responder (>=70% Reduction)” value (patients with FIRES; Patient 2, Wk 16) was “No”, the “Responder (>=90% Reduction)” value (patients with FIRES; Patient 2, Wk 16) was “No” and the “Seizure Free” value (patients with FIRES; Patient 2, Wk 16) was “No”. The “% Change from Baseline” value (patients with FIRES; Patient 3, Wk 4) was −99.2%, the “Change from Baseline” value (patients with FIRES; Patient 3, Wk 4) was −5552.8 and the “Frequency (per month)” value (patients with FIRES; Patient 3, Wk 4) was 47.2 per month. The “Responder (>=50% Reduction)” value (patients with FIRES; Patient 3, Wk 4) was “Yes”, the “Responder (>=70% Reduction)” value (patients with FIRES; Patient 3, Wk 4) was “Yes” and the “Responder (>=90% Reduction)” value (patients with FIRES; Patient 3, Wk 4) was “Yes”. The “Seizure Free” value (patients with FIRES; Patient 3, Wk 4) was “No”, the “% Change from Baseline” value (patients with FIRES; Patient 3, Wk 8) was −99.8% and the “Change from Baseline” value (patients with FIRES; Patient 3, Wk 8) was −5590.8. The “Frequency (per month)” value (patients with FIRES; Patient 3, Wk 8) was 9.2 per month, the “Responder (>=50% Reduction)” value (patients with FIRES; Patient 3, Wk 8) was “Yes” and the “Responder (>=70% Reduction)” value (patients with FIRES; Patient 3, Wk 8) was “Yes”. For the same molecule, the “Responder (>=90% Reduction)” value (patients with FIRES; Patient 3, Wk 8) was “Yes”, the “Seizure Free” value (patients with FIRES; Patient 3, Wk 8) was “No” and the “% Change from Baseline” value (patients with FIRES; Patient 3, Wk 12) was −97.5%. The “Change from Baseline” value (patients with FIRES; Patient 3, Wk 12) was −5458.4, the “Frequency (per month)” value (patients with FIRES; Patient 3, Wk 12) was 141.6 per month and the “Responder (>=50% Reduction)” value (patients with FIRES; Patient 3, Wk 12) was “Yes”. The “Responder (>=70% Reduction)” value (patients with FIRES; Patient 3, Wk 12) was “Yes”, the “Responder (>=90% Reduction)” value (patients with FIRES; Patient 3, Wk 12) was “Yes” and the “Seizure Free” value (patients with FIRES; Patient 3, Wk 12) was “No”. The “% Change from Baseline” value (patients with FIRES; Patient 3, Wk 24) was −90.3%, the “Change from Baseline” value (patients with FIRES; Patient 3, Wk 24) was −5058.0 and the “Frequency (per month)” value (patients with FIRES; Patient 3, Wk 24) was 542.0 per month. The “Responder (>=50% Reduction)” value (patients with FIRES; Patient 3, Wk 24) was “Yes”, the “Responder (>=70% Reduction)” value (patients with FIRES; Patient 3, Wk 24) was “Yes” and the “Responder (>=90% Reduction)” value (patients with FIRES; Patient 3, Wk 24) was “Yes”. The “Seizure Free” value (patients with FIRES; Patient 3, Wk 24) was “No”, the “patients with a marked reduction of seizures” value [1] was 4 and the “patients who became seizure free” value (adult patients) was “two”. For the same molecule, the controlling seizures [2] was “ineffective” and the prevention of seizures (mice) was “able to prevent seizures”.
